Data taken from patent US9302999B2, “Substituted triazoles as herbicides” (E. I. DU PONT DE NEMOURS AND COMPANY, priority 2012, dated 2016).

Experiments:
Format in all cases: in vivo
[1] = system: Russian thistle (Salsola iberica); experiment: Test D pre-/postemergence: Russian thistle
From the text: (§1) Seeds of plant species selected from bluegrass (annual bluegrass, Poa annua), blackgrass (Alopecurus myosuroides), canarygrass (Phalaris minor), chickweed (common chickweed, Stellaria media), galium (catchweed bedstraw, Galium aparine), bromegrass, downy (downy bromegrass, Bromus tectorum), field poppy (Papaver rhoeas), field violet (Viola arvensis), foxtail, green (green foxtail, Setaria viridis), deadnettle (henbit deadnettle, Lamium amplexicaule), ryegrass, Italian (Italian ryegrass, Lolium multiflorum), kochia (Kochia scoparia), lambsquarters (Chenopodium album), oilseed rape (Brassica napus), pigweed (Amaranthus retroflexus), Russian thistle (Salsola iberica), chamomile (scentless chamomile, Matricaria inodora), speedwell (bird's-eye speedwell, Veronica persica), barley, spring (spring barley, Hordeum vulgare), wheat, spring (spring wheat, Triticum aestivum), buckwheat, wild (wild buckwheat, Polygonum convolvulus), mustard, wild (wild mustard, Sinapis arvensis), oat, wild (wild oat, Avena fatua), radish, wild (wild radish, Raphanus raphanistrum), windgrass (Apera spica-venti), barley, winter (winter barley, Hordeum vulgare), and wheat, winter (winter wheat, Triticum aestivum) were planted into a silt loam soil and treated preemergence with test chemicals formulated in a non-phytotoxic solvent mixture which included a surfactant. At the same time, these same crop and weed species were planted in pots containing the planting medium comprising spaghnum peat moss, vermiculite, wetting agent and starter nutrients and treated with postemergence applications of the test chemicals formulated in the same manner. Plants ranged in height from 2 to 18 cm (1- to 4-leaf stage).
(§2) Treated plants and controls were maintained in a controlled growth environment for 14 to 21 days after which time all species were compared to controls and visually evaluated. Plant response ratings, summarized in Table D, are based on a scale of 0 to 100 where 0 is no effect and 100 is complete control. A dash (-) response means no test result.

[2] = system: foxtail, green (green foxtail, Setaria viridis); experiment: Test C pre-/postemergence: foxtail, green
From the text: (§3) Seeds of plant species selected from blackgrass (Alopecurus myosuroides), bromegrass, downy (downy bromegrass, Bromus tectorum), foxtail, green (green foxtail, Setaria viridis), ryegrass, Italian (Italian ryegrass, Lolium multiflorum), winter wheat (Triticum aestivum), wild oat (Avena fatua), galium (catchweed bedstraw, Galium aparine), bermudagrass (Cynodon dactylon), surinam grass (Brachiaria decumbens), cocklebur (common cocklebur, Xanthium strumarium), corn (Zea mays), large crabgrass (Digitaria sanguinalis), woolly cupgrass (Eriochloa villosa), foxtail, giant (giant foxtail, Setaria faberii), goosegrass (Eleusine indica), johnsongrass (Sorghum halepense), kochia (Kochia scoparia), lambsquarters (Chenopodium album), morningglory (Ipomoea coccinea), nightshade (eastern black nightshade, Solanum ptycanthum), nutsedge, yellow (yellow nutsedge, Cyperus esculentus), pigweed (Amaranthus retroflexus), ragweed (common ragweed, Ambrosia elation), soybean (Glycine max), common (oilseed) sunflower (Helianthus annuus), Russian thistle (Salsola kali) and velvetleaf (Abutilon theophrasti) were planted into a blend of loam soil and sand and treated preemergence with test chemicals formulated in a non-phytotoxic solvent mixture which included a surfactant.
(§4) At the same time, plants selected from these crop and weed species and also barley (winter barley, Hordeum vulgare), canarygrass (Phalaris minor), chickweed (common chickweed, Stellaria media) windgrass (Apera spica-venti) and deadnettle (henbit deadnettle, Lamium amplexicaule) were planted in pots containing Redi-Earth® planting medium (Scotts Company, 14111 Scottslawn Road, Marysville, Ohio 43041) comprising spaghnum peat moss, vermiculite, wetting agent and starter nutrients and treated with postemergence applications of test chemicals formulated in the same manner. Plants ranged in height from 2 to 18 cm (1- to 4-leaf stage) for postemergence treatments.
(§5) Treated plants and controls were maintained in a greenhouse for 13 to 15 days, after which time all species were compared to controls and visually evaluated. Plant response ratings, summarized in Table C, are based on a scale of 0 to 100 where 0 is no effect and 100 is complete control. A dash (-) response means no test result.

[3] = system: deadnettle (henbit deadnettle, Lamium amplexicaule); experiment: Test D pre-/postemergence: deadnettle
Summary of the method: (§6)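 Scores run from 0 (no effect) to 100 (complete control), assigned by visual comparison with controls after 14 to 21 days in a controlled environment. Both preemergence application to silt loam and postemergence application to 1- to 4-leaf plants were tested.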

[4] = system: woolly cupgrass (Eriochloa villosa); experiment: Test C pre-/postemergence: woolly cupgrass
From the text: as §3, §4, §5

[5] = system: blackgrass (Alopecurus myosuroides); experiment: Test D pre-/postemergence: blackgrass
From the text: as §1, §2

[6] = system: field poppy (Papaver rhoeas); experiment: Test D pre-/postemergence: field poppy
Summary of the method: as §6

[7] = system: barley, spring (spring barley, Hordeum vulgare); experiment: Test D pre-/postemergence: barley, spring
Summary of the method: as §6

[8] = Postemergence, 31 g ai/ha, scale 0 to 100 (0 no effect, 100 complete control)
[9] = Postemergence, 62 g ai/ha, scale 0 to 100 (0 no effect, 100 complete control)
[10] = Postemergence, 125 g ai/ha, scale 0 to 100, 0 no effect, 100 complete control
[11] = Postemergence, 250 g ai/ha, scale 0 to 100 (0 no effect, 100 complete control)
[12] = Postemergence, 16 g ai/ha, scale 0 to 100
[13] = Preemergence, 16 g ai/ha, scale 0 to 100 (0 no effect, 100 complete control)
[14] = Preemergence, 31 g ai/ha, scale 0 to 100 (0 no effect, 100 complete control)
[15] = Preemergence, 62 g ai/ha, scale 0 to 100
[16] = Preemergence, 125 g ai/ha, scale 0 to 100
[17] = Preemergence, 250 g ai/ha, scale 0 to 100
[18] = Postemergence, 250 g ai/ha, scale 0 to 100
[19] = Preemergence, 31 g ai/ha, scale of 0 to 100, 0 is no effect, 100 is complete control
[20] = Preemergence, 62 g ai/ha, scale of 0 to 100, 0 is no effect, 100 is complete control
[21] = Preemergence, 125 g ai/ha, scale 0 to 100, 0 no effect, 100 complete control
[22] = Preemergence, 250 g ai/ha, scale 0 to 100, 0 no effect, 100 complete control

Cc1nn(-c2ccc(F)cc2)nc1Oc1ccnc(C(F)(F)F)c1 [Compound 129, 4-[[2-(4-fluorophenyl)-5-methyl-2H-1,2,3-triazol-4-yl]oxy]-2-(trifluoromethyl)pyridine]
Plant response rating: Russian Thistle [1, 8]: 98 | Plant response rating: Russian Thistle [1, 9]: 100 | Plant response rating: Russian Thistle [1, 10]: 100 | Plant response rating: Russian Thistle [1, 11]: 100 | Plant response rating, Russian Thistle [1, 12]: 98 | Plant response rating, Russian Thistle [1, 13]: 80 | Plant response rating, Russian Thistle [1, 14]: 100 | Plant response rating, Russian Thistle [1, 15]: 100 | Plant response rating, Russian Thistle [1, 16]: 100 | Plant response rating, Russian Thistle [1, 17]: 100 | Plant response rating, Foxtail, Green [2, 8]: 85 | Plant response rating, Foxtail, Green [2, 9]: 95 | Plant response rating, Foxtail, Green [2, 10]: 95 | Plant response rating, Foxtail, Green [2, 18]: 95 | Plant response rating, Foxtail, Green [2, 19]: 90 | Plant response rating, Foxtail, Green [2, 20]: 90 | Plant response rating, Foxtail, Green [2, 21]: 90 | Plant response rating, Foxtail, Green [2, 22]: 90 | Plant response rating: Deadnettle [3, 8]: 75 | Plant response rating: Deadnettle [3, 9]: 80 | Plant response rating: Deadnettle [3, 10]: 98 | Plant response rating: Deadnettle [3, 11]: 100 | Plant response rating, Deadnettle [3, 12]: 60 | Plant response rating, Deadnettle [3, 13]: 0 | Plant response rating, Deadnettle [3, 14]: 10 | Plant response rating, Deadnettle [3, 15]: 100 | Plant response rating, Deadnettle [3, 16]: 100 | Plant response rating, Deadnettle [3, 17]: 100 | Plant response rating, Cupgrass, Woolly [4, 8]: 35 | Plant response rating, Cupgrass, Woolly [4, 9]: 65 | Plant response rating, Cupgrass, Woolly [4, 10]: 65 | Plant response rating, Cupgrass, Woolly [4, 18]: 70 | Plant response rating, Cupgrass, Woolly [4, 19]: 80 | Plant response rating, Cupgrass, Woolly [4, 20]: 95 | Plant response rating, Cupgrass, Woolly [4, 21]: 98 | Plant response rating, Cupgrass, Woolly [4, 22]: 98 | Plant response rating: Blackgrass [5, 8]: 10 | Plant response rating: Blackgrass [5, 9]: 10 | Plant response rating: Blackgrass [5, 10]: 50 | Plant response rating: Blackgrass [5, 11]: 70 | Plant response rating, Blackgrass [5, 12]: 5 | Plant response rating, Blackgrass [5, 13]: 0 | Plant response rating, Blackgrass [5, 14]: 0 | Plant response rating, Blackgrass [5, 15]: 30 | Plant response rating, Blackgrass [5, 16]: 100 | Plant response rating, Blackgrass [5, 17]: 100 | Plant response rating: Field Poppy [6, 8]: 100 | Plant response rating: Field Poppy [6, 9]: 100 | Plant response rating: Field Poppy [6, 10]: 100 | Plant response rating: Field Poppy [6, 11]: 85 | Plant response rating, Field Poppy [6, 12]: 100 | Plant response rating, Field Poppy [6, 13]: 0 | Plant response rating, Field Poppy [6, 14]: 75 | Plant response rating, Field Poppy [6, 15]: 70 | Plant response rating, Field Poppy [6, 16]: 100 | Plant response rating, Field Poppy [6, 17]: 100 | Plant response rating: Barley, Spring [7, 8]: 5 | Plant response rating: Barley, Spring [7, 9]: 5 | Plant response rating: Barley, Spring [7, 10]: 10 | Plant response rating: Barley, Spring [7, 11]: 10 | Plant response rating, Barley, Spring [7, 12]: 5 | Plant response rating, Barley, Spring [7, 13]: 0 | Plant response rating, Barley, Spring [7, 14]: 0 | Plant response rating, Barley, Spring [7, 15]: 5 | Plant response rating, Barley, Spring [7, 16]: 15 | Plant response rating, Barley, Spring [7, 17]: 20
